Source: article PMC5218480 (PLoS ONE, 2017)

System: MV-4-11 cells
Assay: Gene expression microarray analysis (Affymetrix PrimeView) and GSEA
Format: cell-based, human
Set-up: RFU PODN (11730768_x_at) / Fold change /veh PODN (11730768_x_at) / RFU LINC00158 (11744669_a_at) / Fold change /veh LINC00158 (11744669_a_at) / RFU DUSP10 (11751237_a_at) / Fold change /veh DUSP10 (11751237_a_at) / RFU ID3 (11757404_x_at) / Fold change /veh ID3 (11757404_x_at) / RFU PLEKHG5 (11737974_s_at) / Fold change /veh PLEKHG5 (11737974_s_at) / RFU LRRC4B (11730491_at) / Fold change /veh LRRC4B (11730491_at) / RFU GIMAP4 (11747438_a_at) / Fold change /veh GIMAP4 (11747438_a_at) / RFU KRT8 (11758183_x_at) / Fold change /veh KRT8 (11758183_x_at) / RFU CNN1 (11734310_a_at) / Fold change /veh CNN1 (11734310_a_at) / RFU VPS37D (11726825_at) / Fold change /veh VPS37D (11726825_at) / RFU C10orf10 (11716522_x_at) / Fold change /veh C10orf10 (11716522_x_at) / RFU KIR2DL2 /// KIR2DL4 /// KIR2DL5A /// KIR2DL5B /// KIR2DS1 /// KIR2DS2 /// KIR2DS3 /// KIR2DS4 /// KIR3DL3 /// KIR3DL3 /// KIR3DS1 (11738374_at) / Fold change /veh KIR2DL2 /// KIR2DL4 /// KIR2DL5A /// KIR2DL5B /// KIR2DS1 /// KIR2DS2 /// KIR2DS3 /// KIR2DS4 /// KIR3DL3 /// KIR3DL3 /// KIR3DS1 (11738374_at) / RFU C1QL1 (11718748_at) / Fold change /veh C1QL1 (11718748_at) / RFU TMPRSS4 (11747572_a_at) / Fold change /veh TMPRSS4 (11747572_a_at) / RFU HAMP (11756126_x_at) / Fold change /veh HAMP (11756126_x_at) / RFU RNFT2 (11725882_a_at) / Fold change /veh RNFT2 (11725882_a_at) / RFU NR4A2 (11747474_a_at) / Fold change /veh NR4A2 (11747474_a_at) / RFU ABCC12 (11746883_a_at) / Fold change /veh ABCC12 (11746883_a_at) / RFU TMEM136 (11760407_x_at) / Fold change /veh TMEM136 (11760407_x_at) / RFU CLDN22 /// WWC2 (11732394_at) / Fold change /veh CLDN22 /// WWC2 (11732394_at) / RFU HLA-DPB1 (11760878_x_at) / Fold change /veh HLA-DPB1 (11760878_x_at) / RFU SPINT1 (11716480_a_at) / Fold change /veh SPINT1 (11716480_a_at) / RFU GAP43 (11754022_s_at) / Fold change /veh GAP43 (11754022_s_at) / RFU A4GNT (11735810_at) / Fold change /veh A4GNT (11735810_at) / RFU PRB3 (11715151_x_at) / Fold change /veh PRB3 (11715151_x_at) / RFU TUBB4B (11761932_at) / Fold change /veh TUBB4B (11761932_at) / RFU CAPN14 (11732068_a_at) / Fold change /veh CAPN14 (11732068_a_at) / RFU TMCC2 (11721928_a_at) / Fold change /veh TMCC2 (11721928_a_at) / RFU IRGQ (11745062_a_at) / Fold change /veh IRGQ (11745062_a_at) / RFU FAM174B (11720279_a_at) / Fold change /veh FAM174B (11720279_a_at) / RFU TMPRSS4 (11748680_a_at) / Fold change /veh TMPRSS4 (11748680_a_at) / RFU FAM212B (11763350_a_at) / Fold change /veh FAM212B (11763350_a_at) / RFU PLEKHG5 (11743358_a_at) / Fold change /veh PLEKHG5 (11743358_a_at) / RFU ZSCAN30 (11745921_a_at) / Fold change /veh ZSCAN30 (11745921_a_at) / RFU CMKLR1 (11741424_a_at) / Fold change /veh CMKLR1 (11741424_a_at) / RFU LOC101060620 /// MAPK8IP1 (11723275_at) / Fold change /veh LOC101060620 /// MAPK8IP1 (11723275_at) / RFU SPTSSB (11747773_x_at) / Fold change /veh SPTSSB (11747773_x_at) / RFU PRSS12 (11739890_at) / Fold change /veh PRSS12 (11739890_at) / RFU BIN1 (11741810_x_at) / Fold change /veh BIN1 (11741810_x_at) / RFU WNT11 (11732464_a_at) / Fold change /veh WNT11 (11732464_a_at) / RFU C10orf10 (11716521_a_at) / Fold change /veh C10orf10 (11716521_a_at) / RFU C5orf56 (11738089_at) / Fold change /veh C5orf56 (11738089_at) / RFU CYB561 (11721691_x_at) / Fold change /veh CYB561 (11721691_x_at) / RFU ANKRD19P (11752326_a_at) / Fold change /veh ANKRD19P (11752326_a_at) / RFU OR2T12 /// OR2T33 /// OR2T8 (11738714_s_at) / Fold change /veh OR2T12 /// OR2T33 /// OR2T8 (11738714_s_at) / RFU VCAN (11748164_a_at) / Fold change /veh VCAN (11748164_a_at) / RFU JSRP1 (11732532_at) / Fold change /veh JSRP1 (11732532_at) / RFU KRTAP10-11 (11738290_x_at) / Fold change /veh KRTAP10-11 (11738290_x_at) / RFU MYO3A (11730013_a_at) / Fold change /veh MYO3A (11730013_a_at) / RFU EBF3 (11725865_a_at) / Fold change /veh EBF3 (11725865_a_at) / RFU CAMK2N1 (11719241_x_at) / Fold change /veh CAMK2N1 (11719241_x_at) / RFU C5orf56 (11738088_a_at) / Fold change /veh C5orf56 (11738088_a_at) / RFU OLFML3 (11715873_a_at) / Fold change /veh OLFML3 (11715873_a_at) / RFU LOC100653217 /// NTM (11731650_a_at) / Fold change /veh LOC100653217 /// NTM (11731650_a_at) / RFU MAPK11 (11762145_a_at) / Fold change /veh MAPK11 (11762145_a_at) / RFU FIZ1 (11724087_x_at) / Fold change /veh FIZ1 (11724087_x_at) / RFU OASL (11726364_x_at) / Fold change /veh OASL (11726364_x_at) / RFU SOX15 (11748057_x_at) / Fold change /veh SOX15 (11748057_x_at) / RFU CD79A (11719716_a_at) / Fold change /veh CD79A (11719716_a_at) / RFU HIST1H1D (11736915_at) / Fold change /veh HIST1H1D (11736915_at) / RFU CASKIN2 (11723855_a_at) / Fold change /veh CASKIN2 (11723855_a_at) / RFU LOC730098 (11760151_x_at) / Fold change /veh LOC730098 (11760151_x_at) / RFU OR4N2 (11742367_at) / Fold change /veh OR4N2 (11742367_at) / RFU PRRT2 (11749266_a_at) / Fold change /veh PRRT2 (11749266_a_at) / RFU SNX32 (11753110_a_at) / Fold change /veh SNX32 (11753110_a_at) / RFU CDHR5 (11726645_a_at) / Fold change /veh CDHR5 (11726645_a_at) / RFU RCAN1 (11760418_a_at) / Fold change /veh RCAN1 (11760418_a_at) / RFU FAM167A (11723789_a_at) / Fold change /veh FAM167A (11723789_a_at) / RFU FAM26E (11764081_at) / Fold change /veh FAM26E (11764081_at) / RFU ISYNA1 (11749810_s_at) / Fold change /veh ISYNA1 (11749810_s_at) / RFU ACY1 (11761880_at) / Fold change /veh ACY1 (11761880_at) / RFU 11764098_at / Fold change /veh 11764098_at / RFU SAMD14 (11745864_x_at) / Fold change /veh SAMD14 (11745864_x_at) / RFU NPB (11741838_a_at) / Fold change /veh NPB (11741838_a_at) / RFU TMPRSS6 (11731388_a_at) / Fold change /veh TMPRSS6 (11731388_a_at) / RFU KRTAP10-2 (11738614_at) / Fold change /veh KRTAP10-2 (11738614_at) / RFU ARHGAP8 /// PRR5-ARHGAP8 (11727945_x_at) / Fold change /veh ARHGAP8 /// PRR5-ARHGAP8 (11727945_x_at) / RFU KRTAP5-7 /// NADSYN1 (11734609_at) / Fold change /veh KRTAP5-7 /// NADSYN1 (11734609_at) / RFU RASL12 (11751679_a_at) / Fold change /veh RASL12 (11751679_a_at) / RFU CDKN2B (11736163_a_at) / Fold change /veh CDKN2B (11736163_a_at) / RFU PRF1 (11729649_at) / Fold change /veh PRF1 (11729649_at) / RFU, ZNF638 /// ZNF638-IT1 / Fold change vs veh, ZNF638 /// ZNF638-IT1 / RFU, PANK3 / Fold change vs veh, PANK3 / RFU, SH3YL1 / Fold change vs veh, SH3YL1 / RFU, ZEB2 / Fold change vs veh, ZEB2 / RFU, NRIP1 / Fold change vs veh, NRIP1 / RFU, PTTG1IP / Fold change vs veh, PTTG1IP / RFU, CAPN2 / Fold change vs veh, CAPN2 / RFU, MED14 / Fold change vs veh, MED14 / RFU, SNORA58 / Fold change vs veh, SNORA58 / RFU, C1orf63 / Fold change vs veh, C1orf63 / RFU, LRRFIP1 / Fold change vs veh, LRRFIP1 / RFU, NDUFAF7 / Fold change vs veh, NDUFAF7 / RFU, SLC12A2 / Fold change vs veh, SLC12A2 / RFU, IBTK / Fold change vs veh, IBTK / RFU, ESF1 / Fold change vs veh, ESF1 / Fold change vs veh, TMEM50B / RFU, TAOK1 / Fold change vs veh, TAOK1 / RFU, ACBD3 / Fold change vs veh, ACBD3 / RFU, TMA16 / Fold change vs veh, TMA16 / RFU, RWDD3 / Fold change vs veh, RWDD3 / RFU, BCAT1 / Fold change vs veh, BCAT1 / RFU, EDEM3 / Fold change vs veh, EDEM3 / RFU, TMEM33 / Fold change vs veh, TMEM33 / RFU, WDR75 / Fold change vs veh, WDR75 / RFU, AHCTF1 / Fold change vs veh, AHCTF1 / RFU, TFRC / Fold change vs veh, TFRC / RFU, ZDHHC17 / Fold change vs veh, ZDHHC17 / RFU, NOM1 / Fold change vs veh, NOM1 / RFU, ARL8B / Fold change vs veh, ARL8B / RFU, ZBTB11 / Fold change vs veh, ZBTB11 / RFU, TAMM41 / Fold change vs veh, TAMM41 / RFU, KIAA1704 /// LOC100996395 / Fold change vs veh, KIAA1704 /// LOC100996395 / RFU, ING1 / Fold change vs veh, ING1 / RFU, TRMT61B / Fold change vs veh, TRMT61B / RFU, FUBP3 / Fold change vs veh, FUBP3 / RFU, TP53 / Fold change vs veh, TP53 / RFU, TNKS2 / Fold change vs veh, TNKS2 / RFU, ZFP14 / Fold change vs veh, ZFP14 / RFU, ACTR2 / Fold change vs veh, ACTR2 / RFU, PPP3R1 / Fold change vs veh, PPP3R1 / RFU, PIK3R1 / Fold change vs veh, PIK3R1 / RFU, HNRNPA1 / Fold change vs veh, HNRNPA1 / RFU, RNF170 / Fold change vs veh, RNF170 / RFU, ZNF28 / Fold change vs veh, ZNF28 / RFU, RNGTT / Fold change vs veh, RNGTT / RFU, OGT / Fold change vs veh, OGT / RFU, BRD1 / Fold change vs veh, BRD1 / RFU, MARS / Fold change vs veh, MARS / RFU, ZNF655 / Fold change vs veh, ZNF655 / RFU, FAHD1 / Fold change vs veh, FAHD1 / RFU, BDP1 / Fold change vs veh, BDP1 / RFU, LRRCC1 / Fold change vs veh, LRRCC1 / RFU, ARID1A / Fold change vs veh, ARID1A / RFU, ZNF146 / Fold change vs veh, ZNF146 / RFU, ZNF330 / Fold change vs veh, ZNF330 / RFU, GPN3 / Fold change vs veh, GPN3 / RFU, C9orf123 / Fold change vs veh, C9orf123 / RFU, N4BP2L2 / Fold change vs veh, N4BP2L2 / RFU, ARFIP1 / Fold change vs veh, ARFIP1 / RFU, FAM179B / Fold change vs veh, FAM179B / RFU, BCL10 / Fold change vs veh, BCL10 / RFU, UHRF1BP1L / Fold change vs veh, UHRF1BP1L / RFU, BET1 / Fold change vs veh, BET1 / RFU, CNOT2 / Fold change vs veh, CNOT2 / RFU, ZNF268 / Fold change vs veh, ZNF268 / Fold change vs veh, ZNF507 / RFU, DGCR2 / Fold change vs veh, DGCR2 / RFU, WDSUB1 / Fold change vs veh, WDSUB1 / Fold change vs veh, HSP90B1 /// MIR3652 / RFU, ADSS / Fold change vs veh, ADSS / RFU, GK / Fold change vs veh, GK / RFU, ZNF148 / Fold change vs veh, ZNF148 / RFU, TAF9 / Fold change vs veh, TAF9 / RFU, SLC1A5 / Fold change vs veh, SLC1A5 / RFU, SLMO2 / Fold change vs veh, SLMO2 / RFU, ABCC4 / Fold change vs veh, ABCC4 / RFU, LOC101060439 /// RAP1B / Fold change vs veh, LOC101060439 /// RAP1B / RFU, RFX7 / Fold change vs veh, RFX7 / RFU, GTPBP10 / Fold change vs veh, GTPBP10 / RFU, CNEP1R1 / Fold change vs veh, CNEP1R1 / RFU, BIVM-ERCC5 /// ERCC5 / Fold change vs veh, BIVM-ERCC5 /// ERCC5 / RFU, ILF3 / Fold change vs veh, ILF3 / RFU 11762660_at / Fold change /veh 11762660_at / RFU VCAN (11757783_s_at) / Fold change /veh VCAN (11757783_s_at) / RFU DDX43 (11728927_at) / Fold change /veh DDX43 (11728927_at) / RFU KRT8 (11758188_x_at) / Fold change /veh KRT8 (11758188_x_at) / RFU NKD1 (11759106_at) / Fold change /veh NKD1 (11759106_at) / RFU SRD5A1 (11742802_a_at) / Fold change /veh SRD5A1 (11742802_a_at) / RFU TPSAB1 /// TPSB2 (11721975_s_at) / Fold change /veh TPSAB1 /// TPSB2 (11721975_s_at) / RFU GSTM3 (11746129_a_at) / Fold change /veh GSTM3 (11746129_a_at) / RFU IL23R (11737362_x_at) / Fold change /veh IL23R (11737362_x_at) / RFU TMEM51 (11727254_a_at) / Fold change /veh TMEM51 (11727254_a_at) / RFU PIWIL2 (11732686_x_at) / Fold change /veh PIWIL2 (11732686_x_at) / RFU ORM1 (11744905_x_at) / Fold change /veh ORM1 (11744905_x_at) / RFU CCDC152 (11743942_at) / Fold change /veh CCDC152 (11743942_at) / RFU ECM1 (11717891_a_at) / Fold change /veh ECM1 (11717891_a_at) / RFU IL23R (11748794_a_at) / Fold change /veh IL23R (11748794_a_at) / RFU TNFAIP8L3 (11732012_x_at) / Fold change /veh TNFAIP8L3 (11732012_x_at) / RFU MBOAT4 (11741988_at) / Fold change /veh MBOAT4 (11741988_at) / RFU 11764193_at / Fold change /veh 11764193_at / RFU TMEM53 (11763286_at) / Fold change /veh TMEM53 (11763286_at) / RFU MAGEB2 (11727129_at) / Fold change /veh MAGEB2 (11727129_at) / RFU TMEM200A (11744735_a_at) / Fold change /veh TMEM200A (11744735_a_at) / RFU CCDC152 (11751479_a_at) / Fold change /veh CCDC152 (11751479_a_at) / RFU FAM211A (11726209_a_at) / Fold change /veh FAM211A (11726209_a_at) / RFU RGS16 (11746705_a_at) / Fold change /veh RGS16 (11746705_a_at) / RFU VCAN (11755009_s_at) / Fold change /veh VCAN (11755009_s_at) / RFU RHOB (11743442_s_at) / Fold change /veh RHOB (11743442_s_at) / RFU RGS16 (11720943_a_at) / Fold change /veh RGS16 (11720943_a_at) / RFU RGS16 (11720944_at) / Fold change /veh RGS16 (11720944_at) / RFU, VPS4B / Fold change vs veh, VPS4B / RFU, CREB1 / Fold change vs veh, CREB1 / RFU, DNAJC13 / Fold change vs veh, DNAJC13 / RFU, GNAQ / Fold change vs veh, GNAQ / RFU, CDK5R1 / Fold change vs veh, CDK5R1 / RFU, ZRANB3 / Fold change vs veh, ZRANB3 / RFU, CUL4A / Fold change vs veh, CUL4A / RFU, CCNY / Fold change vs veh, CCNY / RFU, UFL1 / Fold change vs veh, UFL1 / RFU, COG3 / Fold change vs veh, COG3 / RFU, DIAPH2 / Fold change vs veh, DIAPH2 / RFU, SKA2 / Fold change vs veh, SKA2 / RFU, AFF3 / Fold change vs veh, AFF3 / RFU, LMF1 / Fold change vs veh, LMF1 / RFU, IPO11 / Fold change vs veh, IPO11 / RFU, DFFB / Fold change vs veh, DFFB / RFU, FOXP1 / Fold change vs veh, FOXP1 / RFU, CARD8 / Fold change vs veh, CARD8 / RFU, STRN3 / Fold change vs veh, STRN3 / RFU, ADK / Fold change vs veh, ADK / RFU, RASSF2 / Fold change vs veh, RASSF2 / RFU, WIPF1 / Fold change vs veh, WIPF1 / RFU, LARP1B / Fold change vs veh, LARP1B / RFU, RASA1 / Fold change vs veh, RASA1 / RFU, RB1 / Fold change vs veh, RB1 / RFU, PPFIA1 / Fold change vs veh, PPFIA1 / RFU, MAT2A / Fold change vs veh, MAT2A / RFU, CCT5 / Fold change vs veh, CCT5 / RFU, WDR92 / Fold change vs veh, WDR92 / RFU, CUX1 / Fold change vs veh, CUX1 / RFU, TTC7A / Fold change vs veh, TTC7A / RFU, TMEM135 / Fold change vs veh, TMEM135 / RFU, DEPTOR / Fold change vs veh, DEPTOR / RFU, CPM / Fold change vs veh, CPM / RFU, DNAJB6 / Fold change vs veh, DNAJB6 / RFU, CACNA2D3 / Fold change vs veh, CACNA2D3 / RFU, DTX4 / Fold change vs veh, DTX4 / RFU, TFCP2 / Fold change vs veh, TFCP2 / RFU, GMCL1 /// GMCL1P1 / Fold change vs veh, GMCL1 /// GMCL1P1 / RFU, AEBP2 / Fold change vs veh, AEBP2 / RFU, SNHG1 /// SNORD22 /// SNORD25 /// SNORD26 /// SNORD27 /// SNORD28 /// SNORD29 /// SNORD31 / Fold change vs veh, SNHG1 /// SNORD22 /// SNORD25 /// SNORD26 /// SNORD27 /// SNORD28 /// SNORD29 /// SNORD31 / Fold change (Aza/veh), C12orf56 (ProbeSet 11735607_a_at) / Fold change (ACY-1035/veh), C12orf56 (ProbeSet 11735607_a_at) / Fold change (Aza/veh), FGFR1OP (ProbeSet 11751329_s_at) / Fold change (ACY-1035/veh), FGFR1OP (ProbeSet 11751329_s_at) / Fold change (Aza/veh), VPS36 (ProbeSet 11739960_a_at) / Fold change (ACY-1035/veh), VPS36 (ProbeSet 11739960_a_at) / RFU SYPL1 (11715823_x_at) / Fold change /veh SYPL1 (11715823_x_at) / RFU IGFBP7 (11715501_s_at) / Fold change /veh IGFBP7 (11715501_s_at) / RFU REEP3 (11722064_at) / Fold change /veh REEP3 (11722064_at) / RFU IGLL1 (11728026_x_at) / Fold change /veh IGLL1 (11728026_x_at): dose or concentration left out as unconfirmed
Settings: ProbeSet 11719632_a_at; LIST B

Structure (SMILES): Nc1ccc(-c2cccs2)cc1NC(=O)c1ccc2c(c1)cc(C1CC1)n2CCN1CCOCC1 [ACY-1035]
- RFU, ABCC4: 40.19 RFU
